In patent US5736556A, “Tropane-2-aldoxime derivatives as nevro transmitter reuptake inhibitors” (NeuroSearch A/S, priority 1994, dated 1998):
Counter-ions that a name gives are not always drawn.

What was measured:
[1] = molecular target: T1, dopamine transporter (^3 H-dopamine uptake) (Rattus norvegicus, UniProt P23977); assay: In vitro inhibition of ^3 H-dopamine (^3 H-DA) uptake in striatal synaptosomes; format: biochemical, rat (male Wistar); settings: ^3 H-DA 1 nM, 25 min at 37° C.
T1 construct: Corpi striati from male Wistar rats (150-200 g) are homogenized; from tissue; host or cells: P2 synaptosomes of corpus striatum, male Wistar rats
Text: (§1) The compounds of the invention have also been tested for their ability to inhibit reuptake of dopamine(DA) noradrenalin(NA) and serotonin(5-HT) in synaptosomes.
(§2) Specific neurotransmitter transporters/uptake sites on nerve terminals presumably function to terminate neuronal signaling by removing the neurotransmitters dopamine, noradrenaline and serotonin, respectively, from the synaptic cleft. The activity of the transporter integral proteins can be measured in vitro by synaptosomal uptake of ^3 H-dopamine, ^3 H-noradrenaline and ^3 H-serotonine, respectively.
In vitro inhibition of ^3 H-dopamine (^3 H-DA) uptake in striatal synaptosomes
Tissue preparations: Preparations are performed at 0°-4° C. unless otherwise indicated. Corpi striati from male Wistar rats (150-200 g) are homogenized for 5-10 sec in 100 volumes of ice-cold 0.32M sucrose containing 1 mM pargyline using an Ultra-Turrax homogenizer. Monoamine oxidase activity will be inhibited in the presence of pargyline. The homogenate is centrifuged at 1000×g for 10 min. The resulting supermatant is then centrifuged at 27,000×g for 50 min and the supernatant is discarded. The pellet (P2) is resuspended in oxygenated (equilibrated with an atmosphere of 96% O2 : 4% CO2 for at least 30 min) Krebs-Ringer incubation buffer (8000 ml per g of original tissue) at pH 7.2 containing 122 mM NaCl, 0.16 mM EDTA, 4.8 mM KCl, 12.7 mM Na2 HPO4, 3.0 mM NaH2 PO4, 1.2 mM MgSO4, 1 mM CaCl2, 10 mM glucose and 1 mM ascorbic acid.
(§3) Assay: Aliquots of 4.0 ml tissue suspension are added to 100 μl of test solution and 100 μl of ^3 H-DA (1 nM, final concentration), mixed and incubated for 25 min at 37° C. Non-specific uptake is determined using benztropine (10 μM, final concentration). After incubation the samples are poured directly onto Whatman GF/C glass fibre filters under suction. […] The amount of radioactivity on the filters is determined by conventional liquid scintillation counting. Specific uptake is calculated as the difference between total uptake and non-specific uptake. […]

[2] = molecular target: T2, ^3 H-5-HT (serotonin) uptake (serotonin transporter) (Rattus norvegicus, UniProt P31652); assay: In vitro inhibition of ^3 H-5-hydroxytryptamine (^3 H-5-HT, serotonin) uptake in cortical synaptosomes; format: biochemical, rat (male Wistar); settings: ^3 H-5-HT 1 nM, 30 min at 37° C.
T2 construct: Cerebral cortices from male Wistar rats (150-200 g) are homogenized; from tissue; host or cells: P2 synaptosomes of cerebral cortex, male Wistar rats
Text: as §1, §2
In vitro inhibition of ^3 H-5-hydroxytryptamine ^3 H-5-HT, serotonin) uptake in cortical synaptosomes
Tissue preparation: Preparations are performed at 0°-4° C. unless otherwise indicated. Cerebral cortices from male Wistar rats (150-200 g) are homogenized for 5-10 sec in 100 volumes of ice-cold 0.32M sucrose containing 1 mM pargyline using an Ultra-Turrax homogenizer. […]
as §3, with “H-5-HT” for “H-DA”, “30” for “25”, “citalopram (1” for “benztropine (10”, “concentration).” for “concentration). After incubation the samples are poured directly onto Whatman GF/C glass fibre filters under suction.”

dopamine transporter = dopamine transporter (Mus musculus, UniProt Q61327); assay: In vivo inhibition of ^3 H-WIN 35428 binding (striatum); set-up: from tissue; host or cells: striatum of living female NMRI mice; species or system mice (female NMRI); settings: ip, mice, inhibition of specific ^3 H-WIN 35428 binding in striatum
Experimental: All test substances used are solutions or suspensions prepared in 10% TWEEN 80. Groups of three female NMRI mice (25 g) are injected i.p. with the test substance. […] Tissues are weighed and dissolved for 36 h with 1 ml 2% sodium-laurylsulfat. The solubilized tissue is then added 2 ml of scintillation cocktail, and the amount of radioactivity per mg of tissue is counted by conventional liquid scintillation counting. Groups of untreated mice serves as controls.
The ED50 value is determined from dose response curves.
ED50 =(administered dose, mg/kg)×1/(C0 /Cx -1), where C0 is specific binding in controls and Cx is the specific binding in mice treated with test substance.

T2 sequence (P31652 whole entry): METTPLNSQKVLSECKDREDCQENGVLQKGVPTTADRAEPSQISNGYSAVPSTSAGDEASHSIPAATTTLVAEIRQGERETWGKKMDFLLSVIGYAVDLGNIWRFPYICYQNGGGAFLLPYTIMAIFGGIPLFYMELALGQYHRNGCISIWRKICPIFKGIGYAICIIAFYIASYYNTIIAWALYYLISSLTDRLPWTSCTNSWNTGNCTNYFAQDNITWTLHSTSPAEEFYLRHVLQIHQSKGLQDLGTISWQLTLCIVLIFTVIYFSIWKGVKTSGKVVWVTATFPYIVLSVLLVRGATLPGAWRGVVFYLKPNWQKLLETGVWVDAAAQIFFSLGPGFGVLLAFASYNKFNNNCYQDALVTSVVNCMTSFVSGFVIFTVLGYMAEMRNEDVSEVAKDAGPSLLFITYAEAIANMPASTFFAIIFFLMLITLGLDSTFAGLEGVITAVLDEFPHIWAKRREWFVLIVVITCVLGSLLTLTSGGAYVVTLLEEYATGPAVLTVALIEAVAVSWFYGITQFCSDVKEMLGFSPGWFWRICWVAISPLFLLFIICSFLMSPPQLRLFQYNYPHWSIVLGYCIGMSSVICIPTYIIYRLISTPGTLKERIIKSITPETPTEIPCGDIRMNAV
Chain of dopamine transporter (Q61327 whole entry): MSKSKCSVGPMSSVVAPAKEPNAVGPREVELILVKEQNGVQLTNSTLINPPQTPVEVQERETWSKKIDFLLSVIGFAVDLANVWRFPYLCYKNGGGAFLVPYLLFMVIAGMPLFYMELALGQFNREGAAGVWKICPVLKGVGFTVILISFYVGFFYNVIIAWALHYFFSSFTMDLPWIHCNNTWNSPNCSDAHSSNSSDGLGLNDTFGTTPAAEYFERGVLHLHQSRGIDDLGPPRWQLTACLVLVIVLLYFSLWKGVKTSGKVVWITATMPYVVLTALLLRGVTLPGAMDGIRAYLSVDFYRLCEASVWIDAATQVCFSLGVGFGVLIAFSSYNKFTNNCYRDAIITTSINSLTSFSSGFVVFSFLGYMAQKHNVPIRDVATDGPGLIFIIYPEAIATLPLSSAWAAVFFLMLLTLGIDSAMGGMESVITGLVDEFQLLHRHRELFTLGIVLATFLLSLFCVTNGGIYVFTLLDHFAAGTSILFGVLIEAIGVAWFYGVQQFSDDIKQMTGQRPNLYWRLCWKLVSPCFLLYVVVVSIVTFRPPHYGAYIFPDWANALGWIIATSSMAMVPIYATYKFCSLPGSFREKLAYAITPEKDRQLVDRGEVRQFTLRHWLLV
T1 sequence (P23977 whole entry): as the sequence (Q61327 whole entry) above, with P21S, V57A, S194A, R600H, V619L counted along it

CON=C[C@@H]1[C@@H](c2ccc(Cl)c(Cl)c2)C[C@@H]2CC[C@H]1N2C [(1R,2R,3S)-3-(3,4-dichlorophenyl)-tropane-2-O-methyl-aldoxime, H2 SO4]
IC50 [1]: 3 nM | IC50 [2]: 13 nM | ED50 (dopamine transporter): 0.9 mg/kg

CON=C[C@@H]1[C@@H](c2ccc(Cl)c(Cl)c2)C[C@@H]2CC[C@H]1N2 [(1R,2R,3S)-N-Normethyl-3-(3,4-dichlorophenyl)tropane-2-O-methyl-aldoxime, hydrochloride]
IC50 [1]: 2 nM | IC50 [2]: 1.7 nM | ED50 (dopamine transporter): 1.4 mg/kg
